Test results published in patent US8598173B2, “1-[(6,7-substituted alkoxyquinoxalinyl)aminocarbonyl]-4-(hetero)arylpiperazine derivatives for treating tumors” (Korea Research Institute of Chemical Technology, priority 2004, dated 2013).
Where two headings read alike, the source gives them in different places.

Columns and labels:
Type in all cases: cell-based, human
[1] = tested on: MDA-MB-231 (breast); assay: Cell growth inhibition assay (SRB), MDA-MB-231; conditions: SRB method, 96 hours incubation, MDA-MB-231 (breast), read-out: IC50, MDA-MB-231
Procedure: (§1) OVCAR-3, MCF-7, PC3, HepG2, A549, HT-29 and MKN-45 were grown in RPMI1640 medium (Invitrogen, Carlsbad, Calif.) supplemented with 10% fetal bovine serum (‘FBS’), 1 mM sodium pyruvate, 10 mM HEPES and 100 U/ml penicillin and […] streptomycin (‘P/S’). MDA-MB-231, HCT116, UMRC2, Caki-1, PANC-1 and HEK293 cells were maintained in Dulbecco's modified Eagle's medium (‘DMEM’, Invitrogen) supplemented with 10% FBS, P/S, 10 mM HEPES and 2 mM L-glutamine. HUVEC was maintained in M199 supplemented with basic fibroblast growth factor (‘bFGF’) […] and FBS 20%. All cells were incubated at 37° C. under humidified 5% CO2.
(§2) The growth inhibition of the substituted quinoxalin-piperazine compounds against a variety of human tumor cells was evaluated. The relative importance of particular substituent groups on the compounds was also studied. The substituted piperazine derivative compounds, prepared as described above, were tested, along with DMSO as a control.
(§3) The growth inhibition assay of various compounds against human tumor cell lines was performed using the Sulforhodamine B (‘SRB’) method (Skehan et al., J. National Cancer Institute, 1990, 82, 1107-1112). […] Triplicate wells were used for each treatment. The cells were incubated with the various compounds for 96 hours at 37° C. in a humidified 5% CO2 atmosphere. After 96-hour incubation, cells were fixed with 10% trichloroacetic acid (‘TCA’), incubated for 1 hour at 4° C., and washed 3 times with tap water. Subsequently cells were stained with 0.4% sulforhodamine B in 1% acetic acid for 30 minutes, washed 4 times with 1% acetic acid, and air-dried again. After 5 minutes agitation in 10 mM Tris solution, the absorbance of each well was measured at 530 nm using Benchmark Plus Microplate reader (Bio-Rad Laboratories, Hercules, Calif.).
(§4) To translate the OD530 values into the number of live cells in each well, the OD530 values were compared to those on standard OD530-versus-cell number curves generated for each cell line. The percent survival was calculated using the formula: % Survival=live cell number[test]/live cell number[control]×100
(§5) The IC50 values were calculated by non-linear regression analysis.

[2] = tested on: UMRC2 (kidney); assay: Cell growth inhibition assay (SRB), UMRC2; conditions: SRB method, 96 hours incubation, UMRC2 (kidney), read-out: IC50, UMRC2
Procedure: as §1, §2, §3, §4, §5

[3] = tested on: PANC-1 (pancreas); assay: Cell growth inhibition assay (SRB), PANC-1; conditions: SRB method, 96 hours incubation, PANC-1 (pancreas), read-out: IC50, PANC-1
Procedure: as §1, §2, §3, §4, §5

Row | SMILES | IC50 ([1]; Homo sapiens) [µM] | IC50 ([3]; Homo sapiens) [µM] | IC50 [1] [µM] | IC50 [3] [µM] | IC50 ([2]; Homo sapiens) [µM] | IC50 [2] [µM]
1 | COc1cc(OC)cc(N2CCN(C(=O)Nc3nc4cc(Cl)c(Cl)cc4nc3OC)CC2)c1 [Compound 177, 1-[(6,7-Dichloro-2-methoxyquinoxalin-3-yl)aminocarbonyl]-4-(3,5-dimethoxyphenyl)piperazine] | 1.45 | 1.16 | – | – | 0.58 | –
2 | COc1cc(OC)cc(N2CCN(C(=O)Nc3nc4cc(OC)c(OC)cc4nc3OC)CC2)c1 [Compound 191, 1-[(2,6,7-Trimethoxyquinoxalin-3-yl)aminocarbonyl]-4-(3,5-dimethoxyphenyl)piperazine] | 0.69 | 0.9 | – | – | 0.49 | –
3 | COc1cc2nc(NC(=O)N3CCN(c4cccc(C(F)(F)F)c4)CC3)c(OC)nc2cc1OC [Compound 194, 1-[(2,6,7-Trimethoxyquinoxalin-3-yl)aminocarbonyl]-4-(3-trifluorotolyl)piperazine] | – | – | 0.75 | 1.4 | – | 0.79

Further lines, with some results ahead:

Row | IC50 ([1]; Homo sapiens) [µM] | IC50 ([3]; Homo sapiens) [µM] | IC50 [1] [µM] | IC50 [3] [µM] | SMILES | IC50 ([2]; Homo sapiens) [µM] | IC50 [2] [µM]
4 | 0.7 | 1 | – | – | COc1nc2cc(F)c(F)cc2nc1NC(=O)N1CCN(c2cc(C)cc(C)c2)CC1 [Compound 172, 1-[(6,7-Difluoro-2-methoxyquinoxalin-3-yl)aminocarbonyl]-4-(3,5-dimethylphenyl)piperazine] | 0.56 | –
5 | 0.65 | 0.69 | – | – | COc1cc2nc(NC(=O)N3CCN(c4cc(C)cc(C)c4)CC3)c(OC)nc2cc1OC [Compound 193, 1-[(2,6,7-Trimethoxyquinoxalin-3-yl)aminocarbonyl]-4-(3,5-dimethylphenyl)piperazine] | 0.47 | –
6 | 0.72 | 1.05 | – | – | COc1cc2nc(NC(=O)N3CCN(c4cccc(Br)c4)CC3)c(OC)nc2cc1OC [Compound 196, 1-[(2,6,7-Trimethoxyquinoxalin-3-yl)aminocarbonyl]-4-(3-bromophenyl)piperazine] | 0.65 | –
